Data: US20090220445A1, “HAIR CARE COMPOSITIONS AND METHODS FOR INCREASING HAIR DIAMETER AND DELIVERING ADDITIONAL BENEFITS” (priority 2008, published 2009)

Tested on: Primary human dermal papilla cells
Test: Synergy study: survival of metabolically stressed dermal papilla cells (ATP, Cell Titer Glo)
Assay type: cell-based
Details: cells metabolically stressed 48 hours in reduced media, control 100% water
Description: The dermal papilla, in normal human hair, is the control center for hair diameter. Increasing survival of dermal papilla cells in situ leads to increased hair diameter. Accordingly, an increase in survival of dermal papilla cells correlates with an increase in hair diameter.
Primary human dermal papilla cells were metabolically stressed for 48 hours in reduced standard tissue culture media. During this period of stress the cells were treated with the mixtures or individual ingredients below. After 48 hr the metabolic activity of the cells was measured by the amount of ATP using the Cell Titer Glo™ kit (Promega).

SMILES: Cn1c(=O)c2c(ncn2C)n(C)c1=O [Caffeine]
- Survival rate: % Change from Control (0.05%): +41%

SMILES: NC(=O)c1cccnc1 [Niacinamide]
- Survival rate: % Change from Control (0.006%): −8%

SMILES: CC(C)(CO)[C@@H](O)C(=O)NCCCO [Panthenol]
- Survival rate: % Change from Control (0.15%): +6%
